# Test results from patent US10336723B2, “Inhibitors of TrkA kinase” (GVK BIOSCIENCES PRIVATE LIMITED, priority 2015, dated 2019).
# Biological target: T1, human TrkA (Homo sapiens, UniProt P04629)
# T1 construct: expressed in transfected cells; host or cells: AD293 cells
# Assay: TrkA Cell Based Phosphorylation Assay
# Conditions: Recombinant AD293 cells overexpressing human TrkA; TrkA Y490 phosphorylation upon 6 nM NGF stimulation; Phospho-TrkA (Tyr490) sandwich ELISA
# Protocol: Recombinant AD293 cells overexpressing human TrkA were used to determine TrkA Y490 phosphorylation upon NGF stimulation. 25 k cells plated in serum free DMEM medium in a 96 well plate were serum starved for 2 hours at 37° C. in 5% CO2 incubator. Test compounds were added to the plate at a final concentration of 2.5% DMSO and incubated for 20 min at 37° C. 6 nM NGF was added and incubated for 5 min at 37° C. The plate was immediately centrifuged at 2000 rpm for 1 min and media removed. Lysis buffer containing 1% NP-40 Substitute, 20 mM Tris (pH 8.0), 137 mM NaCl final concentrations was added, mixed for one minute and kept on ice for 15 min with shaking every 5 minutes. 100 ul of the cell lysate was added to the PathScan® Phospho-TrkA (Tyr490) Sandwich ELISA plate with precoated wells and ELISA performed according to the manufacturer's instructions for color development. IC50 was generated in Graph Pad Prism software in non linear regression format.
# T1 sequence (P04629 33-796): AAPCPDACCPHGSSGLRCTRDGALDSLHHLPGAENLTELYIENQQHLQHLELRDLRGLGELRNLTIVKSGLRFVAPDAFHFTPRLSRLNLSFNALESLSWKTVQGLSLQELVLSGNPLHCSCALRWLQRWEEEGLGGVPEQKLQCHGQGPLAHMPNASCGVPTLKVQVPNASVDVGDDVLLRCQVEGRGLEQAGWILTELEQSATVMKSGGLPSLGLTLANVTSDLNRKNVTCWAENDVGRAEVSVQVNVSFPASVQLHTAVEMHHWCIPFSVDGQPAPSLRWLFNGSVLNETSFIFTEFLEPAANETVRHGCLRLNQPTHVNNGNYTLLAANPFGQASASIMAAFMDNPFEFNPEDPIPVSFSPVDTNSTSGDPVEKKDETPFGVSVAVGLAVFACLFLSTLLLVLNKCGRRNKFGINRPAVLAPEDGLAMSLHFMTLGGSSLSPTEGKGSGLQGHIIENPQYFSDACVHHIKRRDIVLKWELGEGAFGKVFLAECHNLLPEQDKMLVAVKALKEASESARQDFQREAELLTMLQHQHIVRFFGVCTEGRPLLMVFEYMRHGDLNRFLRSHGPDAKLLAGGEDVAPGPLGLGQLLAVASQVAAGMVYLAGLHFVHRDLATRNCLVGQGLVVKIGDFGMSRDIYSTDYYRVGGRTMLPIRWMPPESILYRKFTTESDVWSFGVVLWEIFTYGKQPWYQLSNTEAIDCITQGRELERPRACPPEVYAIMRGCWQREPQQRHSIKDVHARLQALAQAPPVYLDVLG
row,SMILES,IC50
1,"COCCN1C[C@@H](NC(=O)Nc2c(-c3ccccc3)nc(N3CCOCC3)c3ccccc23)[C@H](c2ccccc2)C1 [Example 172, 1-((3S,4R)-1-(2-Methoxyethyl)-4-phenylpyrrolidin-3-yl)-3-(1-morpholino-3-phenylisoquinolin-4-yl)urea]",< 100 nM
2,"COCCN1C[C@@H](NC(=O)Nc2cc3c(nc2-c2ccccc2)CCCC3)[C@H](c2ccccc2)C1 [Example 125, 1-((3S,4R)-1-(2-Methoxyethyl)-4-phenylpyrrolidin-3-yl)-3-(2-phenyl-5,6,7,8-tetrahydroquinolin-3-yl)urea]",< 100 nM
3,"COCCN1C[C@@H](NC(=O)Nc2c(C(C)(C)C)nc(-c3cnn(C)c3)c3ccccc23)[C@H](c2ccccc2)C1 [Example 165, 1-(3-(tert-Butyl)-1-(1-methyl-1H-pyrazol-4-yl)isoquinolin-4-yl)-3-((3S,4R)-1-(2-methoxyethyl)-4-phenylpyrrolidin-3-yl)urea]",100 to 1000 nM
4,"COCCN1C[C@@H](NC(=O)Nc2cc3ccccc3nc2-c2ccncc2)[C@H](c2ccccc2)C1 [Example 33, 1-((3S,4R)-1-(2-Methoxyethyl)-4-phenylpyrrolidin-3-yl)-3-(2-(pyridin-4-yl)quinolin-3-yl)urea]",> 1000 nM
5,"COCCN1C[C@@H](NC(=O)Nc2cccc3oc4ccccc4c23)[C@H](c2ccccc2)C1 [Example 104, 1-(Dibenzo[b,d]furan-1-yl)-3-((3S,4R)-1-(2-methoxyethyl)-4-phenylpyrrolidin-3-yl)urea]",100 to 1000 nM
6,"COCCN1C[C@@H](NC(=O)Nc2cc3c(OC)cccc3nc2-c2ccccc2)[C@H](c2ccccc2)C1 [Example 16, 1-(5-Methoxy-2-phenylquinolin-3-yl)-3-((3S,4R)-1-(2-methoxyethyl)-4-phenylpyrrolidin-3-yl)urea]",100 to 1000 nM
7,"COCCN1C[C@@H](NC(=O)Nc2cc3cc(OC)c(OC)cc3nc2-c2ccccc2)[C@H](c2cccc(F)c2)C1 [Example 74, 1-(6,7-Dimethoxy-2-phenylquinolin-3-yl)-3-((3S,4R)-4-(3-fluorophenyl)-1-(2-methoxyethyl)pyrrolidin-3-yl)urea]",< 100 nM
8,"COCCN1C[C@@H](NC(=O)Nc2c(-c3ccccc3)nc(C(=O)O)c3cc(F)ccc23)[C@H](c2ccccc2)C1 [Example 190, 7-Fluoro-4-(3-(1-(2-methoxyethyl)-4-phenylpyrrolidin-3-yl)ureido)-3-phenylisoquinoline-1-carboxylic acid]",100 to 1000 nM
9,"COCCN1C[C@@H](NC(=O)Nc2c(-c3ccccc3)ncc3ccccc23)[C@H](c2ccccc2)C1 [Example 149, 1-((3S,4R)-1-(2-Methoxyethyl)-4-phenylpyrrolidin-3-yl)-3-(3-phenylisoquinolin-4-yl)urea]",< 100 nM
10,"COCCN1C[C@@H](NC(=O)Nc2cc3ccccc3nc2-c2ccccc2)[C@H](c2ccccc2)C1 [Example 2, 1-((3S,4R)-1-(2-methoxyethyl)-4-phenylpyrrolidin-3-yl)-3-(2-phenylquinolin-3-yl)urea]",< 100 nM
